Data from PMC7034075, “Exploring structure-activity relationship of S-substituted 2-mercaptoquinazolin-4(3H)-one including 4-ethylbenzenesulfonamides as human carbonic anhydrase inhibitors” (Journal of Enzyme Inhibition and Medicinal Chemistry, 2020).
Where two headings read alike, the source gives them in different places.

Experiments:
Test in all cases: stopped-flow CO2 hydrase assay
Type in all cases: biochemical
hCA XII = target: T1, hCA XII (Homo sapiens, UniProt O43570)
T1 construct: gene CA12; recombinant, obtained in-house
T1 sequence (O43570 25-354): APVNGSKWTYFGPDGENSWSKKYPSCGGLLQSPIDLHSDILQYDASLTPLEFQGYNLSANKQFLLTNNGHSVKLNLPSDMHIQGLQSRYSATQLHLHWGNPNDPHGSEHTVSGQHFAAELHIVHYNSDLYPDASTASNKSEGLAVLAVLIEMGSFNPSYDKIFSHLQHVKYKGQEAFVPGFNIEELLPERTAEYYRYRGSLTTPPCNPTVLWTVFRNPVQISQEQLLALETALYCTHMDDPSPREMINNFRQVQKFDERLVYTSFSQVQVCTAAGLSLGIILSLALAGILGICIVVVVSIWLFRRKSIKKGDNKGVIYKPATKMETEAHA
Text: stopped-flow CO2 hydrase assay on hCA XII

hCA IX = target: T2, hCA IX (Homo sapiens, UniProt Q16790)
T2 construct: gene CA9; recombinant, obtained in-house
Text: stopped-flow CO2 hydrase assay on hCA IX

hCA I = target: T3, hCA I (Homo sapiens, UniProt P00915)
T3 construct: gene CA1; recombinant, obtained in-house
T3 sequence (P00915 2-261): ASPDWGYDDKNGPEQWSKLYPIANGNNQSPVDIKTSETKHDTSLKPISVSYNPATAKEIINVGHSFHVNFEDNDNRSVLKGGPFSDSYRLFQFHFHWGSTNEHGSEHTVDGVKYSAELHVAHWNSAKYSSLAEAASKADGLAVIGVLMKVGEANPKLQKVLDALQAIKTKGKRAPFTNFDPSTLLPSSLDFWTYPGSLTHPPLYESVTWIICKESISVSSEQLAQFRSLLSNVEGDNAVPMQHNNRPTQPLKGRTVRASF
Text: stopped-flow CO2 hydrase assay on hCA I

hCA II = target: T4, hCA II (Homo sapiens, UniProt P00918)
T4 construct: gene CA2; recombinant, obtained in-house
Text: stopped-flow CO2 hydrase assay on hCA II

[1] = CO2 hydration, mean of […] assays

Ki (hCA XII) [nM] | Ki (hCA IX) [nM] | Ki (hCA IX; [1]) [nM] | Ki (hCA I) [nM] | Ki (hCA XII; [1]) [nM] | Ki (hCA II) [nM] | Structure (SMILES)
3.1 | 9.5 |  |  |  |  | CSc1nc2ccccc2c(=O)n1CCc1ccc(S(N)(=O)=O)cc1 [compound 2, 4-(2-(2-(Methylthio)-4-oxoquinazolin-3(4H)-yl)ethyl)benzenesulfonamide]
8.6 | 12.6 |  |  |  |  | N#CCSc1nc2ccccc2c(=O)n1CCc1ccc(S(N)(=O)=O)cc1 [compound 4, 4-(2-(2-((Cyanomethyl)thio)-4-oxoquinazolin-3(4H)-yl)ethyl)benzenesulfonamide]
25.6 |  | 19.3 |  |  |  | NS(=O)(=O)c1ccc(CCn2c(SCc3ccc([N+](=O)[O-])cc3)nc3ccccc3c2=O)cc1 [compound 11, 4-(2-(2-((4-Nitrobenzyl)thio)-4-oxoquinazolin-3(4H)-yl)ethyl)benzenesulfonamide]
20.2 | 22.4 |  | 532 |  |  | NS(=O)(=O)c1ccc(CCn2c(SCCN3CCCCC3)nc3ccccc3c2=O)cc1 [compound 12, 4-(2-(4-Oxo-2-((2-(piperidin-1-yl)ethyl)thio)quinazolin-3(4H)-yl)ethyl)benzenesulfonamide]
38.4 | 50.7 |  |  |  |  | NS(=O)(=O)c1ccc(CCn2c(SCc3ccccc3)nc3ccccc3c2=O)cc1 [compound 5, 4-(2-(2-(Benzylthio)-4-oxoquinazolin-3(4H)-yl)ethyl)benzenesulfonamide]
57 | 64.1 |  |  |  |  | NS(=O)(=O)c1ccc(CCn2c(SCc3ccc(Br)cc3)nc3ccccc3c2=O)cc1 [compound 6, 4-(2-(2-((4-Bromobenzyl)thio)-4-oxoquinazolin-3(4H)-yl)ethyl)benzenesulfonamide]
 | 28.9 |  |  | 17.2 |  | NS(=O)(=O)c1ccc(CCn2c(SCc3ccc(F)cc3)nc3ccccc3c2=O)cc1 [compound 9, 4-(2-(2-((4-Fluorobenzyl)thio)-4-oxoquinazolin-3(4H)-yl)ethyl)benzenesulfonamide]
65.6 | 34.2 |  |  |  |  | NS(=O)(=O)c1ccc(CCn2c(SCc3ccc(Cl)cc3)nc3ccccc3c2=O)cc1 [compound 7, 4-(2-(2-((4-Chlorobenzyl)thio)-4-oxoquinazolin-3(4H)-yl)ethyl)benzenesulfonamide]
17.6 | 47.3 |  |  |  |  | N#Cc1ccc(CSc2nc3ccccc3c(=O)n2CCc2ccc(S(N)(=O)=O)cc2)cc1 [compound 8, 4-(2-(2-((4-Cyanobenzyl)thio)-4-oxoquinazolin-3(4H)-yl)ethyl)benzenesulfonamide]
71.4 | 93.6 |  | 321 |  | 86.6 | NS(=O)(=O)c1ccc(CCn2c(SCCCN3C(=O)c4ccccc4C3=O)nc3ccccc3c2=O)cc1 [compound 13, 4-(2-(2-((3-(1,3-Dioxoisoindolin-2-yl)propyl)thio)-4-oxoquinazolin-3(4H)-yl)ethyl)benzenesulfonamide]
3.9 | 7.1 |  |  |  |  | CCSc1nc2ccccc2c(=O)n1CCc1ccc(S(N)(=O)=O)cc1 [compound 3, 4-(2-(2-(Ethylthio)-4-oxoquinazolin-3(4H)-yl)ethyl)benzenesulfonamide]
28.2 | 57.1 |  |  |  |  | Cc1ccc(CSc2nc3ccccc3c(=O)n2CCc2ccc(S(N)(=O)=O)cc2)cc1 [compound 10, 4-(2-(2-((4-Methylbenzyl)thio)-4-oxoquinazolin-3(4H)-yl)ethyl)benzenesulfonamide]
